Experimental data from ChEMBL document CHEMBL1140740, “Discovery of benzisoxazoles as potent inhibitors of chaperone heat shock protein 90” (J Med Chem, 2008).
≈ marks a conversion by molar mass, not a printed value. Calls of active or inactive are those of the source. The rule behind the calls is not given here.

What was measured:
[1] = biological target: Heat shock protein HSP 90-alpha (Homo sapiens, UniProt P07900)
Description: Inhibition of human Hsp90-alpha by fluorescence polarization assay

HCT-116 [2] = assay: Antiproliferation activity against human HCT116 cells; type: functional, cell-based
HCT-116 [3] = assay: Antiproliferation activity against human HCT116 cells
SK-BR-3 [4] = assay: Degradation of HER2 in human SKBR3 cells; type: functional, cell-based
[5] = Aqueous solubility at pH 7.4; type: physicochemical
K562 [6] = assay: Downregulation of Bcr-Abl in human K562 cells; type: functional, cell-based
Activin receptor type-2B = Activin receptor type-2B (Homo sapiens, UniProt Q13705); assay: Inhibition of ActR2B
LNCaP [7] = assay: Antiproliferation activity against human LnCap cells; type: functional, cell-based
[8] = biological target: T1, Inhibitor of nuclear factor kappa-B kinase subunit beta (Homo sapiens, UniProt O14920); assay: Inhibition of IKK2
T1 sequence (O14920 whole entry): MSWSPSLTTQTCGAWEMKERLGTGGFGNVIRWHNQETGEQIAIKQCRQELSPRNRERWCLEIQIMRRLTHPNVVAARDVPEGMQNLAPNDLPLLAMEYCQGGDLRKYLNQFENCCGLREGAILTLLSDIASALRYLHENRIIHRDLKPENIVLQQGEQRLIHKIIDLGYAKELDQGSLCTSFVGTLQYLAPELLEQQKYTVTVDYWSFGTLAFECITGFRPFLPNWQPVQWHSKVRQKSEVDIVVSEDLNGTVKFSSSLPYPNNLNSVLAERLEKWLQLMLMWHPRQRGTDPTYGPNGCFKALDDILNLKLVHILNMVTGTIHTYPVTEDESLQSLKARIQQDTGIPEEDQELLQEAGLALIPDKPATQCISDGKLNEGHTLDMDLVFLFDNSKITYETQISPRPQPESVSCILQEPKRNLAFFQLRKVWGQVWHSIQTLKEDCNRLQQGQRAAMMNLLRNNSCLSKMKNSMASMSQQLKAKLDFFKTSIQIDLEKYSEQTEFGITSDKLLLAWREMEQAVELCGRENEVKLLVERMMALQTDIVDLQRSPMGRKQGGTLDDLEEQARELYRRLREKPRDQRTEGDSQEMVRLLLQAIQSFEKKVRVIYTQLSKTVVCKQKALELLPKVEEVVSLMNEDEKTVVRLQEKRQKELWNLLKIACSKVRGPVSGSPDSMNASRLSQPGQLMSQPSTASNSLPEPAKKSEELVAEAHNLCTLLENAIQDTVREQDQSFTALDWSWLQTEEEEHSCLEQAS

[9] = Antiproliferation activity against human H157 cells; type: functional, cell-based; conditions: NCI-H157
K562 [10] = assay: Upregulation of Hsp70 in K562 cells; type: functional, cell-based; conditions: Homo sapiens
DU-145 = assay: Antiproliferation activity against human DU145 cells; type: functional, cell-based
[11] = biological target: Protein kinase C theta type (Homo sapiens, UniProt Q04759); assay: Inhibition of PKC theta
HCT-116 [12] = assay: Antiproliferation activity against human HCT116 cells in presence of geldanamycin; type: functional, cell-based
LNCaP [13] = assay: Androgen receptor degradation in human LnCAP cells; type: functional, cell-based
SK-BR-3 [14] = assay: Antiproliferation activity against human SKBR3 cells; type: functional, cell-based
K562 [15] = assay: Degradation of actin in human K562 cells; type: functional, cell-based
[16] = biological target: Serine/threonine-protein kinase B-raf (Homo sapiens, UniProt P15056); assay: Inhibition of B-Raf
[17] = biological target: Phosphatidylinositol 4,5-bisphosphate 3-kinase catalytic subunit alpha isoform (Homo sapiens, UniProt P42336); assay: Inhibition of P13K alpha
[18] = biological target: Serine/threonine-protein kinase mTOR (Homo sapiens, UniProt P42345); assay: Inhibition of mTOR
[19] = biological target: T2, Protein kinase C epsilon type (Homo sapiens, UniProt Q02156); assay: Inhibition of PKC epsilon
T2 sequence (Q02156 whole entry): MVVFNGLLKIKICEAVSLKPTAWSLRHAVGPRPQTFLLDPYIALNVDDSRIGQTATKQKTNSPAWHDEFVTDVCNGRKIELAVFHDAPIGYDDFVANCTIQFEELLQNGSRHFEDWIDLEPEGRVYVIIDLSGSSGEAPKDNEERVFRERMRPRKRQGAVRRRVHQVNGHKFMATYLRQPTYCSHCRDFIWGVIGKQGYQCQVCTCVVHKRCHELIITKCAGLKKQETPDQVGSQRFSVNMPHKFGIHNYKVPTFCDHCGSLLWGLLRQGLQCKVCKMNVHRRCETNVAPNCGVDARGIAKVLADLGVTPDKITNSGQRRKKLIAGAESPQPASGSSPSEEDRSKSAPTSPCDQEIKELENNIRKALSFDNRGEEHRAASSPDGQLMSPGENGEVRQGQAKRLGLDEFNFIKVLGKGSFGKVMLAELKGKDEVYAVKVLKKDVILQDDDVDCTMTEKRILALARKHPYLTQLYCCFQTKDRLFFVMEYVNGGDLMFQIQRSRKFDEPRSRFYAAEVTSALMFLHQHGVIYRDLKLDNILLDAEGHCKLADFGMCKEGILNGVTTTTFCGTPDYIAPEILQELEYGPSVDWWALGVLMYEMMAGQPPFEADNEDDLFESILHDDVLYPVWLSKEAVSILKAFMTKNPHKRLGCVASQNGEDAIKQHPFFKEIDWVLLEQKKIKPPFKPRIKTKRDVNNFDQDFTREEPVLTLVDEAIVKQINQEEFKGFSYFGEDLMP

[20] = biological target: MAP kinase-activated protein kinase 2 (Homo sapiens, UniProt P49137); assay: Inhibition of MK2
MAP kinase-activated protein kinase 2, sequence (P49137 whole entry): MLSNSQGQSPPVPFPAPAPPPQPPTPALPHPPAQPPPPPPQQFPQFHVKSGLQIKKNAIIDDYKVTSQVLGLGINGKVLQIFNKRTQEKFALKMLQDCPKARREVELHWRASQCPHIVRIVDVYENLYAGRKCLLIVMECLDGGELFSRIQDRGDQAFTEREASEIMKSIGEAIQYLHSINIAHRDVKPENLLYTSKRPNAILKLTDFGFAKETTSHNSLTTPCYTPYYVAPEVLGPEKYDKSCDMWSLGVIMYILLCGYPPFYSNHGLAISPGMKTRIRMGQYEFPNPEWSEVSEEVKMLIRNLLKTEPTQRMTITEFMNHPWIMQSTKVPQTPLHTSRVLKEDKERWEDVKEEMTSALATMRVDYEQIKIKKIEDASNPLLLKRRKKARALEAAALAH

Phosphatidylinositol 4,5-bisphosphate 3-kinase catalytic subunit alpha isoform, sequence (P42336 whole entry, canonical isoform): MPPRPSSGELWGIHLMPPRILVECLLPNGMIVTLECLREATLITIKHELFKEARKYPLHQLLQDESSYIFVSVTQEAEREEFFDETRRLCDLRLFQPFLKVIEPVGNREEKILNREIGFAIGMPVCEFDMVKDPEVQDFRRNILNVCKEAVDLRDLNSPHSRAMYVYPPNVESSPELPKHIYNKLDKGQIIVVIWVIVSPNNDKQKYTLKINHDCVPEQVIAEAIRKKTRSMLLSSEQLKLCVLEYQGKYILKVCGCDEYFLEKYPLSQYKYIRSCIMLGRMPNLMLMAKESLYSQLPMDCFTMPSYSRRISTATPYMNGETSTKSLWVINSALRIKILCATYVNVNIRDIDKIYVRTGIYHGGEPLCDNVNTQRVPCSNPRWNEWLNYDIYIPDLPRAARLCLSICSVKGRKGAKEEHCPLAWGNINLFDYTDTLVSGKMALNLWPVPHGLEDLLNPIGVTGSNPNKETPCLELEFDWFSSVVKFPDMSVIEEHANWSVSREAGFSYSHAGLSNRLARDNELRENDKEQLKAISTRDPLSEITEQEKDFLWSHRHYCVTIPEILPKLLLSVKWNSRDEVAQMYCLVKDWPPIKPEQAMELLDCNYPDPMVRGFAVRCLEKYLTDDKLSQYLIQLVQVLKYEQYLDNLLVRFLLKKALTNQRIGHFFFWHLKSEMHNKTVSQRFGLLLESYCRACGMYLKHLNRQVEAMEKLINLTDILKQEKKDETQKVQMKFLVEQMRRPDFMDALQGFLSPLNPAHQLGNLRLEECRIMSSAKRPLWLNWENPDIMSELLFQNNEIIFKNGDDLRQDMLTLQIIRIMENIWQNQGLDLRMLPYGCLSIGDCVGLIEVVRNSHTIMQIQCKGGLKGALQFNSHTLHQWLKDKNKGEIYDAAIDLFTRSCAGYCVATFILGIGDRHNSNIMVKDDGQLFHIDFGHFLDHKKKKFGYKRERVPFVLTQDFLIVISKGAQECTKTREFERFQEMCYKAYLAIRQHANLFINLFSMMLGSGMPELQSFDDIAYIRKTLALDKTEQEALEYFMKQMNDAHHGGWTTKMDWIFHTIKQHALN
Serine/threonine-protein kinase B-raf, sequence (P15056 whole entry, canonical isoform): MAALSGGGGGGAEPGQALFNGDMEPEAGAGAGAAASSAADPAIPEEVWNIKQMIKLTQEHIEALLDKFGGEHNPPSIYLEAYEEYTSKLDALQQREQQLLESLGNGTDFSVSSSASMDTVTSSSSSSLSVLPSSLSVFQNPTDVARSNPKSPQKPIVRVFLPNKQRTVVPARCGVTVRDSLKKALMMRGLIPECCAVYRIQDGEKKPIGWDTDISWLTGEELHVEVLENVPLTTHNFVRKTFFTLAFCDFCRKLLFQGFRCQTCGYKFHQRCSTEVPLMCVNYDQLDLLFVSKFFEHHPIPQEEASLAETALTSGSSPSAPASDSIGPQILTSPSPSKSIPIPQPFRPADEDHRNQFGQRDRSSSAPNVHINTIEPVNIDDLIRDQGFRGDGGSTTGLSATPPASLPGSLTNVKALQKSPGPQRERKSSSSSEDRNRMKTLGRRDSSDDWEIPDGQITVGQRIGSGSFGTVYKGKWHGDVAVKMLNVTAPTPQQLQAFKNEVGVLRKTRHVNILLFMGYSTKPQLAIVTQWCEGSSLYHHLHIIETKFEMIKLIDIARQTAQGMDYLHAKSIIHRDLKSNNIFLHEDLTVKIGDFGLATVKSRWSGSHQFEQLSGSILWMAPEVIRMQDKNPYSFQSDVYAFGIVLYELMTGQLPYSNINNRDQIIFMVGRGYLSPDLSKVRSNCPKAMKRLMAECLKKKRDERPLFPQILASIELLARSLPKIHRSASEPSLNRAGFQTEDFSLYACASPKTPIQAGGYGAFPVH
Protein kinase C theta type, sequence (Q04759 whole entry): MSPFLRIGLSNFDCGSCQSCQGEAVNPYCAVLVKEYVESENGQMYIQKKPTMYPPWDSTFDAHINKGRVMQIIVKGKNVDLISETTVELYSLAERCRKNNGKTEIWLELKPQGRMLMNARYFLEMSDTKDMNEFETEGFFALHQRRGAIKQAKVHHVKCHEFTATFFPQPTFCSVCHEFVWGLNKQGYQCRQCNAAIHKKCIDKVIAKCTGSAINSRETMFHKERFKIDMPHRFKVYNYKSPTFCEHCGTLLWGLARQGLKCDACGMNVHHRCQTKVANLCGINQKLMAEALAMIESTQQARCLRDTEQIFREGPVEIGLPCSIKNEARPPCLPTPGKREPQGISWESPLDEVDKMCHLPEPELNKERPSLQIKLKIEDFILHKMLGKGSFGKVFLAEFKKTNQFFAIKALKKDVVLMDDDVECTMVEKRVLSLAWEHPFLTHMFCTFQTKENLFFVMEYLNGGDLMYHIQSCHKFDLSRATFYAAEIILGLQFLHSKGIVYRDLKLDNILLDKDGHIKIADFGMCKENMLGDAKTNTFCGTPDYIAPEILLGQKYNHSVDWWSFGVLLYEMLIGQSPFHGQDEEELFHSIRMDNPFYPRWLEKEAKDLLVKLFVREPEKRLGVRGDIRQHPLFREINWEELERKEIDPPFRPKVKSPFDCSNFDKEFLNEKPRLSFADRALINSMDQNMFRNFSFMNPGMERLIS
Activin receptor type-2B, sequence (Q13705 whole entry): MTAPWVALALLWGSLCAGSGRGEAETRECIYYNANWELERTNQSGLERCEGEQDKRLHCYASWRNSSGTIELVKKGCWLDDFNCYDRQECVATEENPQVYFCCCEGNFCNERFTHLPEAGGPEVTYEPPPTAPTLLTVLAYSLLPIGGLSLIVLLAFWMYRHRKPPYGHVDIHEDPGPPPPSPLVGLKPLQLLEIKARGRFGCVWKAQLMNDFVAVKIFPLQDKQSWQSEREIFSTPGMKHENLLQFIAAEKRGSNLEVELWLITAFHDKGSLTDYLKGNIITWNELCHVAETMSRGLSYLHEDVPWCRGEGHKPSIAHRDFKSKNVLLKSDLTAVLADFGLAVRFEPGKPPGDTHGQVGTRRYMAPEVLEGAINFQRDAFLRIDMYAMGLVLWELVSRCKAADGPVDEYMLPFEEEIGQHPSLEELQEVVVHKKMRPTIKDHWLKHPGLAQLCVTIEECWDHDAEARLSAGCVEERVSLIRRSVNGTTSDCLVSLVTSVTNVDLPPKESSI

With Oc1cc(O)c(-c2noc3ccc(NCCN4CCOCC4)cc23)cc1Br the IC50 [1] was 0.04 µM.
With COc1cc(OC)c(-c2noc3ccc(NCCN4CCOCC4)cc23)cc1Cl the IC50 [1] was > 20 µM.
With COc1ccc2c(-c3cc(Cl)c(OC)cc3OC)noc2c1 the IC50 [1] was > 20 µM.
For Oc1ccc2c(-c3cc(Cl)c(O)cc3O)noc2c1, the IC50 [1] was 0.06 µM.
Molecule CN1CCN(c2ccc3onc(-c4cc(Cl)c(O)cc4O)c3c2)CC1 has an IC50 (HCT-116 [2]) of 9.4 µM and an IC50 [1] of 0.8 µM.
Oc1ccc(-c2noc3cc(O)ccc23)c(O)c1 showed an IC50 [1] of 15.2 µM.
With Oc1ccc2c(-c3cc(Br)c(O)cc3O)noc2c1 the IC50 (HCT-116 [3]) was ≥ 20 µM, the IC50 (SK-BR-3 [4]) was ≥ 20 µM and the solubility [5] was 4 µg/mL (≈ 12.4 µM).
With Oc1cc(O)c(-c2noc3ccc(NCCN4CCOCC4)cc23)cc1Cl the Activity (K562 [6]) was “Active”, the IC50 (Activin receptor type-2B) was > 20 µM and the IC50 (LNCaP [7]) was 0.17 µM. For the same molecule, the IC50 (HCT-116 [2]) was 0.28 µM, the IC50 [8] was > 20 µM and the IC50 [9] was 0.23 µM. For the same molecule, the IC50 (SK-BR-3 [4]) was 0.33 µM, the Activity (K562 [10]) was “Active” and the IC50 (DU-145) was 0.29 µM. The IC50 [11] was > 20 µM, the IC50 (HCT-116 [12]) was 0.05 µM and the IC50 (LNCaP [13]) was 0.33 µM. For the same molecule, the IC50 (SK-BR-3 [14]) was 0.37 µM, the Activity (K562 [15]) was “inactive” and the IC50 [16] was > 20 µM. The IC50 [17] was > 20 µM, the IC50 [18] was > 20 µM and the IC50 [19] was > 20 µM. The IC50 [20] was > 20 µM.
